Source: patent publication US6737383B1, “Herbicidal oxadiazolidines” (priority 1999, dated 2004)

Assays:
[1] = test system: blackgrass; assay: Test B pre/postemergence blackgrass; type: in vivo, Alopecurus myosuroides
Outline: (§1)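 Test chemicals in a non-phytotoxic solvent mixture with surfactant were sprayed preemergence onto planted seeds and postemergence onto plants 2 to 18 cm tall (1- to 4-leaf stage). After twelve to sixteen days in a greenhouse, injury was visually rated against untreated controls from 0 (no effect) to 10 (complete control).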

[2] = test system: surinam grass; assay: Test B pre/postemergence surinam grass; type: in vivo, Brachiaria decumbens
Outline: as §1

[3] = test system: cocklebur; assay: Test B pre/postemergence cocklebur; type: in vivo, Xanthium strumarium; settings: for Cocklebur plant response rating: scale of 0 to 10 where 0 is no effect and 10 is complete control
Outline: as §1

[4] = test system: corn; assay: Test B pre/postemergence corn; type: in vivo, Zea mays; settings: for Corn plant response rating: scale of 0 to 10 where 0 is no effect and 10 is complete control
Outline: as §1

[5] = test system: crabgrass; assay: Test B pre/postemergence crabgrass; type: in vivo, Digitaria sanguinalis; settings: for Crabgrass plant response rating: scale of 0 to 10 where 0 is no effect and 10 is complete control
Outline: as §1

[6] = test system: giant foxtail; assay: Test B pre/postemergence giant foxtail; type: in vivo, Setaria faberii; settings: for Giant foxtail plant response rating: scale of 0 to 10 where 0 is no effect and 10 is complete control
Outline: as §1

[7] = test system: morningglory; assay: Test B pre/postemergence morningglory; type: in vivo, Ipomoea hederacea; settings: for Morningglory plant response rating: scale of 0 to 10 where 0 is no effect and 10 is complete control
Outline: as §1

[8] = test system: pigweed; assay: Test B pre/postemergence pigweed; type: in vivo, Amaranthus retroflexus; settings: for Redroot pigweed plant response rating: scale of 0 to 10 where 0 is no effect and 10 is complete control
Outline: as §1

[9] = test system: rape; assay: Test B pre/postemergence rape; type: in vivo, Brassica napus; settings: for Rape plant response rating: scale of 0 to 10 where 0 is no effect and 10 is complete control
Outline: as §1

[10] = test system: soybean; assay: Test B pre/postemergence soybean; type: in vivo, Glycine max; settings: for Soybean plant response rating: scale of 0 to 10 where 0 is no effect and 10 is complete control
Outline: as §1

[11] = test system: sugar beet; assay: Test B pre/postemergence sugar beet; type: in vivo, Beta vulgaris; settings: for Sugarbeets plant response rating: scale of 0 to 10 where 0 is no effect and 10 is complete control
Outline: as §1

[12] = test system: velvetleaf; assay: Test B pre/postemergence velvetleaf; type: in vivo, Abutilon theophrasti; settings: for Velvetleaf plant response rating: scale of 0 to 10 where 0 is no effect and 10 is complete control
Outline: as §1

[13] = test system: wild oat; assay: Test B pre/postemergence wild oat; type: in vivo, Avena fatua; settings: for Wild oats plant response rating: scale of 0 to 10 where 0 is no effect and 10 is complete control
Outline: as §1

[14] = test system: purple nutsedge; assay: Test B pre/postemergence purple nutsedge; type: in vivo, Cyperus rotundus; settings: for Nutsedge plant response rating: scale of 0 to 10 where 0 is no effect and 10 is complete control
Outline: as §1

[15] = test system: smallflower flatsedge; assay: Test B flood test smallflower flatsedge; type: in vivo, Cyperus difformis
Outline: (§2)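 Plants were grown to the 2-leaf stage before treatment with test chemical, then held in a greenhouse for twelve to sixteen days. Injury was visually rated against untreated controls on a 0–10 scale, where 0 is no effect and 10 is complete control.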

[16] = test system: bamyardgrass; assay: Test B flood test barnyardgrass; type: in vivo, Echinochloa crus-galli
Outline: as §2

[17] = Postemergence, Rate 125 g/ha, scale 0 to 10, 0 is no effect, 10 is complete control
[18] = Preemergence, Rate 62 g/ha, scale 0 to 10 (0 no effect, 10 complete control)
[19] = Preemergence, Rate 250 g/ha, scale of 0 to 10 where 0 is no effect and 10 is complete control
[20] = Preemergence, Rate 500 g/ha, scale of 0 to 10 where 0 is no effect and 10 is complete control
[21] = Rate 62 g/ha, Postemergence, scale of 0 to 10 where 0 is no effect and 10 is complete control
[22] = Rate 250 g/ha, Postemergence, scale of 0 to 10 where 0 is no effect and 10 is complete control
[23] = Rate 500 g/ha, Postemergence, scale 0 to 10, 0 no effect, 10 complete control
[24] = Postemergence (flood test), Rate 125 g/ha, scale 0 to 10, 0 is no effect, 10 is complete control
[25] = Rate 62 g/ha, Postemergence (flood test species), scale of 0 to 10 where 0 is no effect and 10 is complete control
[26] = Rate 500 g/ha, listed under Postemergence (flood test species), scale 0 to 10, 0 no effect, 10 complete control

Cc1cccc(C(C)(C)C)c1-n1c(=O)on(C(=O)N(c2ccc(F)cc2)C(C)C)c1=O [Compound 359]
2: Plant response rating, Blackgrass [1, 23] | Plant response rating, Soybean [10, 17] | Plant response rating, Velvetleaf [12, 23]
1: Plant response rating, Cocklebur [3, 23]
3: Plant response rating, Soybean [10, 23]
0: Plant response rating, Blackgrass [1, 17] | Plant response rating, Blackgrass [1, 18] | Blackgrass plant response rating (0 to 10 scale) ([1]; Preemergence, Rate 125 g/ha) | Blackgrass plant response rating [1, 19] | Blackgrass plant response rating [1, 20] | Blackgrass plant response rating [1, 21] | Plant response rating, Blackgrass [1, 22] | Plant response rating, B. signalgrass [2, 17] | Plant response rating, B. signalgrass [2, 18] | B. signalgrass plant response rating (0 to 10 scale, 0 is no effect, 10 is complete control) ([2]; Preemergence, Rate 125 g/ha) | B. signalgrass plant response rating [2, 19] | B. signalgrass plant response rating [2, 20] | B. signalgrass plant response rating [2, 21] | Plant response rating, B. signalgrass [2, 22] | Plant response rating, B. signalgrass [2, 23] | Plant response rating, Cocklebur [3, 17] | Plant response rating, Cocklebur [3, 18] | Cocklebur plant response rating (0 to 10 scale) ([3]; Preemergence, Rate 125 g/ha) | Cocklebur plant response rating ([3]; Preemergence, Rate 500 g/ha) | Cocklebur plant response rating ([3]; Rate 62 g/ha, Postemergence) | Plant response rating, Corn [4, 17] | Plant response rating, Corn [4, 18] | Corn plant response rating (0 to 10 scale) ([4]; Preemergence, Rate 125 g/ha) | Corn plant response rating ([4]; Preemergence, Rate 250 g/ha) | Corn plant response rating ([4]; Preemergence, Rate 500 g/ha) | Corn plant response rating ([4]; Rate 62 g/ha, Postemergence) | Plant response rating, Corn [4, 23] | Plant response rating, Crabgrass [5, 17] | Plant response rating, Crabgrass [5, 18] | Crabgrass plant response rating (0 to 10 scale) ([5]; Preemergence, Rate 125 g/ha) | Crabgrass plant response rating ([5]; Preemergence, Rate 250 g/ha) | Crabgrass plant response rating ([5]; Preemergence, Rate 500 g/ha) | Crabgrass plant response rating ([5]; Rate 62 g/ha, Postemergence) | Plant response rating, Crabgrass [5, 23] | Plant response rating, Giant foxtail [6, 17] | Plant response rating, Giant foxtail [6, 18] | Giant foxtail plant response rating (0 to 10 scale) ([6]; Preemergence, Rate 125 g/ha) | Giant foxtail plant response rating ([6]; Preemergence, Rate 250 g/ha) | Giant foxtail plant response rating ([6]; Preemergence, Rate 500 g/ha) | Giant foxtail plant response rating ([6]; Rate 62 g/ha, Postemergence) | Plant response rating, Giant foxtail [6, 23] | Plant response rating, Morningglory [7, 17] | Plant response rating, Morningglory [7, 18] | Morningglory plant response rating (0 to 10 scale) ([7]; Preemergence, Rate 125 g/ha) | Morningglory plant response rating ([7]; Preemergence, Rate 250 g/ha) | Morningglory plant response rating ([7]; Preemergence, Rate 500 g/ha) | Morningglory plant response rating ([7]; Rate 62 g/ha, Postemergence) | Plant response rating, Morningglory [7, 23] | Plant response rating, Redroot pigweed [8, 17] | Plant response rating, Redroot pigweed [8, 18] | Redroot pigweed plant response rating (0 to 10 scale) ([8]; Preemergence, Rate 125 g/ha) | Redroot pigweed plant response rating ([8]; Preemergence, Rate 250 g/ha) | Redroot pigweed plant response rating ([8]; Preemergence, Rate 500 g/ha) | Redroot pigweed plant response rating ([8]; Rate 62 g/ha, Postemergence) | Plant response rating, Redroot pigweed [8, 23] | Plant response rating, Rape [9, 17] | Plant response rating, Rape [9, 18] | Rape plant response rating (0 to 10 scale) ([9]; Preemergence, Rate 125 g/ha) | Rape plant response rating ([9]; Preemergence, Rate 250 g/ha) | Rape plant response rating ([9]; Preemergence, Rate 500 g/ha) | Rape plant response rating ([9]; Rate 62 g/ha, Postemergence) | Plant response rating, Rape [9, 23] | Plant response rating, Soybean [10, 18] | Soybean plant response rating (0 to 10 scale) ([10]; Preemergence, Rate 125 g/ha) | Soybean plant response rating ([10]; Preemergence, Rate 250 g/ha) | Soybean plant response rating ([10]; Preemergence, Rate 500 g/ha) | Soybean plant response rating ([10]; Rate 62 g/ha, Postemergence) | Plant response rating, Sugarbeets [11, 17] | Plant response rating, Sugarbeets [11, 18] | Sugarbeets plant response rating (0 to 10 scale) ([11]; Preemergence, Rate 125 g/ha) | Sugarbeets plant response rating ([11]; Preemergence, Rate 250 g/ha) | Sugarbeets plant response rating ([11]; Preemergence, Rate 500 g/ha) | Sugarbeets plant response rating ([11]; Rate 62 g/ha, Postemergence) | Plant response rating, Sugarbeets [11, 23] | Plant response rating, Velvetleaf [12, 17] | Plant response rating, Velvetleaf [12, 18] | Velvetleaf plant response rating (0 to 10 scale) ([12]; Preemergence, Rate 125 g/ha) | Velvetleaf plant response rating ([12]; Preemergence, Rate 250 g/ha) | Velvetleaf plant response rating ([12]; Preemergence, Rate 500 g/ha) | Velvetleaf plant response rating ([12]; Rate 62 g/ha, Postemergence) | Plant response rating, Wild oats [13, 17] | Plant response rating, Wild oats [13, 18] | Wild oats plant response rating (0 to 10 scale) ([13]; Preemergence, Rate 125 g/ha) | Wild oats plant response rating ([13]; Preemergence, Rate 250 g/ha) | Wild oats plant response rating ([13]; Preemergence, Rate 500 g/ha) | Wild oats plant response rating ([13]; Rate 62 g/ha, Postemergence) | Plant response rating, Wild oats [13, 23] | Plant response rating, Nutsedge [14, 17] | Plant response rating, Nutsedge [14, 18] | Nutsedge plant response rating (0 to 10 scale) ([14]; Preemergence, Rate 125 g/ha) | Nutsedge plant response rating ([14]; Preemergence, Rate 250 g/ha) | Nutsedge plant response rating ([14]; Preemergence, Rate 500 g/ha) | Nutsedge plant response rating ([14]; Rate 62 g/ha, Postemergence) | Plant response rating, Nutsedge [14, 23] | Plant response rating, S. Flatsedge [15, 24] | S. Flatsedge plant response rating [15, 25] | Plant response rating, S. Flatsedge [15, 26] | Plant response rating, Barnyardgrass [16, 24] | Barnyardgrass plant response rating [16, 25] | Plant response rating, Barnyardgrass ([16]; Rate 250 g/ha, Postemergence (flood test species), scale of 0 to 10 where 0 is no effect and 10 is complete control) | Plant response rating, Barnyardgrass [16, 26]
